We go through seven molecules from US7037495B1, “Antimicrobial compositions” (priority 1999, dated 2006).

What all share (format): cell-based, Escherichia coli
For one assay, the system named is TOP10 E. coli − bcrA. Briefly: MIC determination by microtitre broth dilution method, TOP10 E. coli − bcrA. Particulars: 24 h at 37° C. The method, then: (§1) MIC Determination by Microtitre Broth Dilution Method
(§2) TOP10 E. coli with or without (O) bcrA were grown to a concentration of 2×10^4 cfu/ml (bcrA+was grown in the presence of 100 μg/ml ampicillin to select for the pBAD-TOPO vector) in RPMI medium (Sigma) in the presence of 0.002% L-arabinose, as the inducer of the bcrA gene. 100 μl TOP10 E. coli±bcrA was dispensed into 96 well microtitre plate (Sigma) to give a final concentration of 1×10^4 cfu/ml. […] The plates were incubated for 24 h at 37° C. and scored by growth or no growth.
(In broth dilution the organism is exposed to a series of concentrations in liquid medium.)

The test system of assay [1] is TOP10 E. coli + bcrA. Nature of the assay: MIC determination by microtitre broth dilution method, TOP10 E. coli + bcrA. The note with it: for Growth of TOP10 E. coli + bcrA: 24 h at 37° C. Here is the method: as §1, §2
Assay [2] concerns TOP10 E. coli + bcrA. Briefly: Phage clone activity against resistance of TOP10 E. coli + bcrA to nalidixic acid. Particulars: for Nalidixic acid MIC: in the presence of phage (neat and diluted 1:10), TOP10 E. coli + bcrA, 24 h at 37° C. Here is the method: TOP10 E. coli+bcrA were grown to a concentration of 2×10^4 cfu/ml in RPMI medium (Sigma) containing 100 μg/ml ampicillin (to select for the pBAD-TOPO vector) in the presence of 0.002% L-arabinose, as the inducer of the bcrA gene. 100 μl TOP10 E. coli+bcrA, at a final concentration of 1×10^4 cfu/ml, were dispensed into 96 well microtitre plate (Sigma) in the presence of neat phage and phage diluted 1:10 (see table below). Serial doubling dilutions nalidixic acid was added to each well, with the concentration ranging from 128 to 0.25 μg/ml. A control with just the media was set up. The plates were incubated for 24 h at 37° C. Six phage clones were tested.

The mark [3] stands for this setting: TOP10 E. coli + bcrA versus − bcrA.

As to `N=C(NCCCCCCNC(=N)NC(=N)Nc1ccc(Cl)cc1)NC(=N)Nc1ccc(Cl)cc1` [Chlorohexadine], the “Growth of TOP10 E. coli − bcrA” value with TOP10 E. coli − bcrA (antibiotic 0.125 μg/ml), in the assay on TOP10 E. coli − bcrA (antibiotic 0.25 μg/ml), in the assay with TOP10 E. coli − bcrA (antibiotic 0.5 μg/ml), in the assay on TOP10 E. coli − bcrA (antibiotic 1 μg/ml), in the assay with TOP10 E. coli − bcrA (antibiotic 2 μg/ml) and in the assay on TOP10 E. coli − bcrA (antibiotic 4 μg/ml) was “+” throughout. The “Growth of TOP10 E. coli − bcrA” value is listed as “+” with TOP10 E. coli − bcrA (antibiotic 8 μg/ml); “−” in the assay with TOP10 E. coli − bcrA (antibiotic 16 μg/ml); “−” in the assay with TOP10 E. coli − bcrA (antibiotic 32 μg/ml); “−” with TOP10 E. coli − bcrA (antibiotic 64 μg/ml); “−” in the assay on TOP10 E. coli − bcrA (antibiotic 128 μg/ml). Besides, the “resistance conferred by the bcrA gene in TOP10 E. coli” value in the assay with TOP10 E. coli + bcrA [1] (setting [3]) is recorded as “No resistance”. Further, the “Growth of TOP10 E. coli + bcrA” value in the assay with TOP10 E. coli + bcrA [1] (antibiotic 0.125 μg/ml), with TOP10 E. coli + bcrA [1] (antibiotic 0.25 μg/ml), with TOP10 E. coli + bcrA [1] (antibiotic 0.5 μg/ml), in the assay with TOP10 E. coli + bcrA [1] (antibiotic 1 μg/ml), in the assay with TOP10 E. coli + bcrA [1] (antibiotic 2 μg/ml) and in the assay with TOP10 E. coli + bcrA [1] (antibiotic 4 μg/ml) was “+” throughout. Also, the “Growth of TOP10 E. coli + bcrA” value in the assay on TOP10 E. coli + bcrA [1] (antibiotic 8 μg/ml) was “+”; in the assay with TOP10 E. coli + bcrA [1] (antibiotic 16 μg/ml), “−”; in the assay with TOP10 E. coli + bcrA [1] (antibiotic 32 μg/ml), “−”; in the assay with TOP10 E. coli + bcrA [1] (antibiotic 64 μg/ml), “−”; with TOP10 E. coli + bcrA [1] (antibiotic 128 μg/ml) it was “−”.

As for `O=C(O)c1cn(C2CC2)c2cc(N3CCNCC3)c(F)cc2c1=O` [Ciprofloxacin], the “Growth of TOP10 E. coli − bcrA” value is given as “+” with TOP10 E. coli − bcrA (antibiotic 0.125 μg/ml); “−” in the assay on TOP10 E. coli − bcrA (antibiotic 0.25 μg/ml); “−” in the assay with TOP10 E. coli − bcrA (antibiotic 0.5 μg/ml); “−” in the assay with TOP10 E. coli − bcrA (antibiotic 1 μg/ml); “−” with TOP10 E. coli − bcrA (antibiotic 2 μg/ml); “−” with TOP10 E. coli − bcrA (antibiotic 4 μg/ml). The “Growth of TOP10 E. coli − bcrA” value with TOP10 E. coli − bcrA (antibiotic 8 μg/ml), in the assay on TOP10 E. coli − bcrA (antibiotic 16 μg/ml), in the assay on TOP10 E. coli − bcrA (antibiotic 32 μg/ml), in the assay with TOP10 E. coli − bcrA (antibiotic 64 μg/ml) and in the assay with TOP10 E. coli − bcrA (antibiotic 128 μg/ml) was “−” each time. Further, the “resistance conferred by the bcrA gene in TOP10 E. coli” value with TOP10 E. coli + bcrA [1] (setting [3]) was “No resistance”. Moreover, the “Growth of TOP10 E. coli + bcrA” value in the assay on TOP10 E. coli + bcrA [1] (antibiotic 0.125 μg/ml) is given as “+”; in the assay on TOP10 E. coli + bcrA [1] (antibiotic 0.25 μg/ml), “−”; with TOP10 E. coli + bcrA [1] (antibiotic 0.5 μg/ml) it was “−”; in the assay with TOP10 E. coli + bcrA [1] (antibiotic 1 μg/ml), “−”; with TOP10 E. coli + bcrA [1] (antibiotic 2 μg/ml) it was “−”; with TOP10 E. coli + bcrA [1] (antibiotic 4 μg/ml), “−”. The “Growth of TOP10 E. coli + bcrA” value in the assay with TOP10 E. coli + bcrA [1] (antibiotic 8 μg/ml), with TOP10 E. coli + bcrA [1] (antibiotic 16 μg/ml), in the assay on TOP10 E. coli + bcrA [1] (antibiotic 32 μg/ml), in the assay on TOP10 E. coli + bcrA [1] (antibiotic 64 μg/ml) and with TOP10 E. coli + bcrA [1] (antibiotic 128 μg/ml) was “−” in each case.

For `CCn1cc(C(=O)O)c(=O)c2ccc(C)nc21` [Nalidixic Acid], the “Growth of TOP10 E. coli − bcrA” value in the assay with TOP10 E. coli − bcrA (antibiotic 0.125 μg/ml) is listed as “+”; with TOP10 E. coli − bcrA (antibiotic 0.25 μg/ml), “+”; in the assay with TOP10 E. coli − bcrA (antibiotic 0.5 μg/ml), “+”; with TOP10 E. coli − bcrA (antibiotic 1 μg/ml) it was “+”; with TOP10 E. coli − bcrA (antibiotic 2 μg/ml), “+”; with TOP10 E. coli − bcrA (antibiotic 4 μg/ml), “−”. Also, the “Growth of TOP10 E. coli − bcrA” value with TOP10 E. coli − bcrA (antibiotic 8 μg/ml), in the assay on TOP10 E. coli − bcrA (antibiotic 16 μg/ml), in the assay with TOP10 E. coli − bcrA (antibiotic 32 μg/ml), in the assay on TOP10 E. coli − bcrA (antibiotic 64 μg/ml) and with TOP10 E. coli − bcrA (antibiotic 128 μg/ml) was “−” each time. For the same molecule, the MIC in the assay on TOP10 E. coli + bcrA [2] (Escherichia coli, 24 h, read-out: Nalidixic acid MIC) turned out to be 16 µg/mL. Moreover, the “difference in MIC in TOP10 E. coli ± bcrA” value with TOP10 E. coli + bcrA [1] (TOP10 E. coli + bcrA versus − bcrA, doubling dilutions) is “three well difference”. The “Growth of TOP10 E. coli + bcrA” value in the assay on TOP10 E. coli + bcrA [1] (antibiotic 0.125 μg/ml), with TOP10 E. coli + bcrA [1] (antibiotic 0.25 μg/ml), in the assay with TOP10 E. coli + bcrA [1] (antibiotic 0.5 μg/ml), in the assay on TOP10 E. coli + bcrA [1] (antibiotic 1 μg/ml), in the assay with TOP10 E. coli + bcrA [1] (antibiotic 2 μg/ml) and in the assay on TOP10 E. coli + bcrA [1] (antibiotic 4 μg/ml) was “+” in each case. Further, the “Growth of TOP10 E. coli + bcrA” value was “+” with TOP10 E. coli + bcrA [1] (antibiotic 8 μg/ml); “−” with TOP10 E. coli + bcrA [1] (antibiotic 16 μg/ml); “−” in the assay on TOP10 E. coli + bcrA [1] (antibiotic 32 μg/ml); “−” with TOP10 E. coli + bcrA [1] (antibiotic 64 μg/ml); “−” in the assay on TOP10 E. coli + bcrA [1] (antibiotic 128 μg/ml).

For the molecule `CN(C)[C@@H]1C(O)=C(C(N)=O)C(=O)[C@@]2(O)C(O)=C3C(=O)c4c(O)cccc4[C@@](C)(O)[C@H]3C[C@@H]12` [Tetracycline], the “Growth of TOP10 E. coli − bcrA” value in the assay on TOP10 E. coli − bcrA (antibiotic 0.125 μg/ml) is recorded as “+”; with TOP10 E. coli − bcrA (antibiotic 0.25 μg/ml), “+”; in the assay on TOP10 E. coli − bcrA (antibiotic 0.5 μg/ml), “+”; in the assay with TOP10 E. coli − bcrA (antibiotic 1 μg/ml) it was “+”; with TOP10 E. coli − bcrA (antibiotic 2 μg/ml), “+”; in the assay on TOP10 E. coli − bcrA (antibiotic 4 μg/ml), “−”. Also, the “Growth of TOP10 E. coli − bcrA” value with TOP10 E. coli − bcrA (antibiotic 8 μg/ml), in the assay on TOP10 E. coli − bcrA (antibiotic 16 μg/ml), in the assay on TOP10 E. coli − bcrA (antibiotic 32 μg/ml), in the assay on TOP10 E. coli − bcrA (antibiotic 64 μg/ml) and in the assay with TOP10 E. coli − bcrA (antibiotic 128 μg/ml) was “−” throughout. Moreover, the “Growth of TOP10 E. coli + bcrA” value with TOP10 E. coli + bcrA [1] (antibiotic 0.125 μg/ml), in the assay with TOP10 E. coli + bcrA [1] (antibiotic 0.25 μg/ml), in the assay on TOP10 E. coli + bcrA [1] (antibiotic 0.5 μg/ml), in the assay on TOP10 E. coli + bcrA [1] (antibiotic 1 μg/ml), in the assay with TOP10 E. coli + bcrA [1] (antibiotic 2 μg/ml) and with TOP10 E. coli + bcrA [1] (antibiotic 4 μg/ml) was “+” throughout. In addition, the “Growth of TOP10 E. coli + bcrA” value with TOP10 E. coli + bcrA [1] (antibiotic 8 μg/ml), with TOP10 E. coli + bcrA [1] (antibiotic 16 μg/ml), in the assay with TOP10 E. coli + bcrA [1] (antibiotic 32 μg/ml), with TOP10 E. coli + bcrA [1] (antibiotic 64 μg/ml) and with TOP10 E. coli + bcrA [1] (antibiotic 128 μg/ml) was “−” each time.

As to AIISFGFMAFFGSVV [Peptide 1], in the assay with TOP10 E. coli + bcrA [2], the “Nalidixic acid MIC” value came to 2 µg/mL.

On to HRLDRMVASFAFHR [Peptide 3], for which the “Nalidixic acid MIC” value with TOP10 E. coli + bcrA [2] amounted to 8 µg/mL.

On to SVVIFPLWQTVMGYT [Peptide 2], for which the “Nalidixic acid MIC” value in the assay on TOP10 E. coli + bcrA [2] turned out to be 16 µg/mL.
